The values below come from patent US20080193963A1, “Method of Determining the State of Activation of a Protein” (NAMBITION GMBH, priority 2005, published 2008).

This assay deals with T1, NhaA (Escherichia coli, UniProt P13738).
T1 construct: Pulling NhaA (402aa) from either the N- or C-terminus; His6 (C); made in house; host or cells: E. coli BL21(DE3)
The assay is described as follows: Single-molecule force spectroscopy (SMFS) unfolding of NhaA in presence of inhibitor. The assay is classed as binding. As to the method: We used a NanoWizard AFM (JPK Instruments, Germany) with an 850 nm laser detection system. As AP absorbs light between 290 and 350 nm, we avoided double-photon excitation and photobleaching by the laser. The spring constants of the 200 μm long (di-Veeco, USA) and 80μ long (Olympus, Japan) Si3N4 AFM cantilevers used were determined using the equipartion theorem (Butt H. J., 1995; Florin, 1995). NhaA was reconstituted into E. coli polar lipid bilayers forming two-dimensional crystals (Williams et al., 1999). Membranes were immobilized on freshly cleaved mica in 200 mM KCl, 10% glycerol, 25 mM K^+-acetate, pH 4.0 for 20 min. Experiments were performed in buffer solutions containing 190 mM KCl and 10 mM NaCl at pH 7.7 (20 mM tris-HCl) and pH 4.0 (20 mM citric acid). AP concentrations of prepared solutions were determined by their optical densities at λ=305.5 using the excitation coefficient eAP=7500 M^−1·cm^−1 (Additional Ref. 151). Solutions containing AP were kept away from light and experiments were performed in a dark room. Buffer solutions were made in fresh nano-pure water (18.2MΩ·cm^−1), using p. a. purity grade reagents from Sigma/Merck. AFM topographs of immobilized membrane patches resolved the crystalline NhaA arrangements, which were selected to unfold individual proteins (Kedrov et al., 2004).
Only C-terminal unfolding events were studied as they are dominant at pH 7.7 (Additional Ref. 152). To obtain the unfolded polpeptide chain length each force peak was fifted using the worm-like-chain (Bustamante et al., 1994) model as described ([…]). Individual unfolding barriers were located by subtracting the unfolded polypeptide length fron the C-terminus. For each force peak (unfolding barrier) the probability and average forces were calculated. At every studied condition up to 150 single-molecule unfolding events were analyzed using Igor Pro (Wavemetrics Inc., USA) and home-written macros. To probe the statistical difference of data sets the data were tested against one-way ANOVA analysis.

T1 sequence (P13738 whole entry): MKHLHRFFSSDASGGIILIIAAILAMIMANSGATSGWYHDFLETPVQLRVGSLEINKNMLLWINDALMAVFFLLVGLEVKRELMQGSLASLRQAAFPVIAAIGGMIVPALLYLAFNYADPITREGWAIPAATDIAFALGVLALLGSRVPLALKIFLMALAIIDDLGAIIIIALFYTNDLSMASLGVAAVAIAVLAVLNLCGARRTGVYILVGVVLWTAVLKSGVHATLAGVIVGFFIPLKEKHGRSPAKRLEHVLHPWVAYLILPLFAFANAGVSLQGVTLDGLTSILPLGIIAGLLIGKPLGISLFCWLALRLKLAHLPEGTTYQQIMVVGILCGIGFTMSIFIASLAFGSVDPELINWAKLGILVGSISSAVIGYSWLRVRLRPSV

For `NC1=Nc2cccc3cccc(c23)N1` [AP, 2-aminoperimidine], the “"stable" fraction in histograms of force at helix IX (AP binding) with increasing Na+ concentration” value (40 μM AP, 10 or 200 μM NaCl as printed) is given as “drastic decrease”. For the same compound, the “average strength of the interaction detected by the 125aa force peak (helix XI as printed)” value (40 μM AP, NhaA activated at pH 7.7, mean ±SD, n=95, without AP 75±29 pN (n=61), p<0.0001) was 105±41 pN. The “enhanced interaction strength of a fraction of NhaA molecules (125aa peak) after exposure to AP” value (pH 7.7, NhaA.AP complex population, free NhaA ≈75 pN) is “≈ 140 pN”. Further, the “NhaA molecules that established enhanced stability at α-helix IX” value (pH-locked conformation, pH 4.0, incubated with 40 μM AP) is recorded as “≈ 15%”.
